Results taken from the NIST ThermoML archive (doi:10.1016/j.fluid.2019.06.001).
± gives the expanded uncertainty stated by the source.

Conditions: Fluid (supercritical or subcritical phases), Brillouin light scattering technique

CCCCCC [hexane]
Conditions | speed of sound [m/s]
509.17 K, 3500 kPa | 162.1 ± 9.4
509.4 K, 4500 kPa | 243.8 ± 14
509.44 K, 6500 kPa | 331.1 ± 21
509.57 K, 5500 kPa | 291.1 ± 18
509.67 K, 7500 kPa | 361.3 ± 25
511.22 K, 5500 kPa | 286.1 ± 17
511.26 K, 4500 kPa | 232.7 ± 13
511.27 K, 6500 kPa | 324.2 ± 21
511.34 K, 7500 kPa | 355.3 ± 24
511.69 K, 3500 kPa | 138.7 ± 8.8
514.25 K, 7500 kPa | 347.2 ± 23
514.43 K, 6500 kPa | 314.1 ± 20
514.46 K, 3500 kPa | 112.5 ± 8.6
514.5 K, 4500 kPa | 216.4 ± 12
514.6 K, 5500 kPa | 272 ± 16
517.46 K, 7500 kPa | 336.8 ± 22
517.47 K, 4500 kPa | 201.9 ± 11
517.58 K, 6500 kPa | 303.6 ± 18
517.72 K, 3500 kPa | 95.8 ± 8.2
517.82 K, 5500 kPa | 260.2 ± 15
519.87 K, 3500 kPa | 100.4 ± 7.2
520.19 K, 7500 kPa | 328.5 ± 21
520.36 K, 4500 kPa | 183.7 ± 10
520.46 K, 6500 kPa | 289 ± 17
520.54 K, 5500 kPa | 245.2 ± 14
523.4 K, 4500 kPa | 168.4 ± 8.9
523.63 K, 6500 kPa | 278.2 ± 16
523.79 K, 3500 kPa | 112.7 ± 6.2
523.89 K, 5500 kPa | 229.4 ± 13
523.93 K, 7500 kPa | 316.5 ± 20
527.66 K, 4500 kPa | 155 ± 7.6
527.85 K, 3500 kPa | 120.4 ± 5.5
528.22 K, 5500 kPa | 210.9 ± 11
528.42 K, 7500 kPa | 304.2 ± 18
528.58 K, 6500 kPa | 263.2 ± 15
533.3 K, 4500 kPa | 131.7 ± 6
533.43 K, 7500 kPa | 285.3 ± 17
533.48 K, 6500 kPa | 248.1 ± 14
533.62 K, 5500 kPa | 194.1 ± 10
533.83 K, 3500 kPa | 134.2 ± 5.7
538.14 K, 4500 kPa | 125 ± 5.5
538.33 K, 5500 kPa | 174.8 ± 9
538.58 K, 6500 kPa | 231.5 ± 13
538.81 K, 7500 kPa | 270.8 ± 16
538.84 K, 3500 kPa | 140.1 ± 6.1
543 K, 4500 kPa | 125.6 ± 5.4
543.14 K, 6500 kPa | 219.9 ± 12
543.21 K, 5500 kPa | 165.4 ± 8.1
543.52 K, 7500 kPa | 259.9 ± 15
543.69 K, 3500 kPa | 145.3 ± 6.3
547.89 K, 5500 kPa | 158.2 ± 7.6
547.96 K, 4500 kPa | 130.2 ± 5.6
548.14 K, 6500 kPa | 207.4 ± 11
548.31 K, 3500 kPa | 149.2 ± 6.8
548.56 K, 7500 kPa | 248.3 ± 14
553.1 K, 3500 kPa | 155.1 ± 7.1
553.44 K, 7500 kPa | 235.1 ± 13
553.55 K, 6500 kPa | 194.1 ± 9.8
553.6 K, 4500 kPa | 134.9 ± 5.8
554.09 K, 5500 kPa | 150.9 ± 7
558.44 K, 3500 kPa | 161.5 ± 7.3
558.48 K, 4500 kPa | 139.2 ± 6
558.9 K, 5500 kPa | 144.8 ± 6.4
559.79 K, 6500 kPa | 180.9 ± 8.9
560.33 K, 7500 kPa | 222.2 ± 12
562.44 K, 4500 kPa | 142.8 ± 6.1
562.56 K, 3500 kPa | 164.9 ± 7.5
563.13 K, 5500 kPa | 143.4 ± 6.2
563.76 K, 6500 kPa | 171.7 ± 8.4
563.92 K, 7500 kPa | 215.1 ± 11
567.95 K, 4500 kPa | 150.6 ± 6.8
568.21 K, 3500 kPa | 168.8 ± 7.9
568.4 K, 5500 kPa | 146.5 ± 6.6
568.54 K, 7500 kPa | 205.6 ± 11
568.59 K, 6500 kPa | 169 ± 8.1
573.12 K, 7500 kPa | 201.1 ± 10
573.18 K, 5500 kPa | 150 ± 6.7
573.36 K, 4500 kPa | 155.7 ± 7
573.51 K, 6500 kPa | 165.9 ± 7.6
574.58 K, 3500 kPa | 174.8 ± 8.2
578.08 K, 4500 kPa | 161.3 ± 7.2
578.22 K, 5500 kPa | 154 ± 6.9
578.65 K, 6500 kPa | 167.9 ± 7.9
578.77 K, 3500 kPa | 177.5 ± 8.3
579.07 K, 7500 kPa | 191.7 ± 9.4
582.79 K, 5500 kPa | 157.3 ± 7
582.93 K, 4500 kPa | 164.7 ± 7.4
583.09 K, 6500 kPa | 165.5 ± 7.4
583.3 K, 7500 kPa | 190.5 ± 9.4
584.09 K, 3500 kPa | 183 ± 8.6
587.91 K, 4500 kPa | 170.5 ± 8
588.07 K, 5500 kPa | 160.4 ± 7.1
588.45 K, 6500 kPa | 166.4 ± 7.5
588.59 K, 3500 kPa | 186.5 ± 8.7
589.01 K, 7500 kPa | 188.8 ± 9.3
592.61 K, 5500 kPa | 164.2 ± 7.3
592.78 K, 6500 kPa | 168.5 ± 7.9
593.04 K, 4500 kPa | 174.8 ± 8.1
593.24 K, 7500 kPa | 187.8 ± 9.2
594.05 K, 3500 kPa | 188.6 ± 9.2
597.84 K, 4500 kPa | 178.5 ± 8.3
597.98 K, 5500 kPa | 169.1 ± 7.9
598.14 K, 6500 kPa | 168.6 ± 7.8
598.52 K, 7500 kPa | 186.2 ± 8.7
598.83 K, 3500 kPa | 192.2 ± 9.3
602.73 K, 4500 kPa | 181.2 ± 8.4
602.85 K, 5500 kPa | 172 ± 8
603.05 K, 6500 kPa | 173.4 ± 8.1
603.41 K, 3500 kPa | 195.9 ± 9.5
603.44 K, 7500 kPa | 186 ± 8.7
608.03 K, 4500 kPa | 183.5 ± 8.5
608.05 K, 5500 kPa | 178 ± 8.3
608.12 K, 6500 kPa | 175.1 ± 8.1
608.49 K, 7500 kPa | 185.6 ± 8.6
608.96 K, 3500 kPa | 198.5 ± 9.6
612.5 K, 5500 kPa | 180.2 ± 8.4
612.69 K, 6500 kPa | 179.7 ± 8.3
612.7 K, 4500 kPa | 187 ± 9.1
613.43 K, 7500 kPa | 187.8 ± 9.1
614.5 K, 3500 kPa | 203.1 ± 9.9
617.91 K, 4500 kPa | 193.6 ± 9.4
618.05 K, 5500 kPa | 184.3 ± 8.5
618.21 K, 6500 kPa | 182 ± 8.4
618.56 K, 7500 kPa | 190.1 ± 9.2
618.79 K, 3500 kPa | 204.3 ± 9.9
622.49 K, 6500 kPa | 184.8 ± 8.6
622.59 K, 7500 kPa | 191 ± 9.2
622.8 K, 5500 kPa | 186.5 ± 8.6
623.06 K, 4500 kPa | 195.6 ± 9.5
624.52 K, 3500 kPa | 206.1 ± 10
628.11 K, 5500 kPa | 190.4 ± 9.2
628.12 K, 7500 kPa | 194.6 ± 9.4
628.15 K, 4500 kPa | 198.3 ± 9.6
628.16 K, 6500 kPa | 189 ± 9.1
629.29 K, 3500 kPa | 209.3 ± 10
632.52 K, 4500 kPa | 202.1 ± 9.8
632.99 K, 6500 kPa | 192.3 ± 9.3
633.06 K, 7500 kPa | 196.8 ± 9.5
633.07 K, 5500 kPa | 193.6 ± 9.4
633.86 K, 3500 kPa | 210.4 ± 11
635.27 K, 7500 kPa | 198 ± 9.6
635.5 K, 6500 kPa | 194.3 ± 9.4
636.04 K, 5500 kPa | 195 ± 9.4
636.79 K, 4500 kPa | 204.9 ± 9.9
637.99 K, 3500 kPa | 211.6 ± 11
